10 molecules from PubChem BioAssay AID196 (DTP/NCI, 2004) can be followed below.

Where “and” joins values, the source holds several entries; their conditions need not be identical. Equal entries are not always repeated. Toxic doses and inconclusive results are not listed.

This assay has as its system BDF1 mice, intracerebral B16 melanoma, median survival T/C. Description: NCI In Vivo Anticancer Drug Screen. Data for tumor model B16 Melanoma (intracerebral) in B6D2F1 (BDF1) mice. To be noted: endpoint: median survival time, higher = longer survival. On the procedure: The antitumor activity of compounds was measured in mice bearing transplantable tumors. Survival or tumor size were measured and the results are expressed as the measurement made in the treated group (T) divided by the measurement made in the vehicle treated control group (C). The tumor model used in this assay is B16 Melanoma (intracerebral) in B6D2F1 (BDF1) mice

Where [1] appears, read: dose: 0.75 mg/kg/injection, schedule: Q01DX009 (ip), vehicle: saline.
[2] abbreviates: dose: 1.5 mg/kg/injection, schedule: Q01DX009 (ip), vehicle: saline.
The mark [3] stands for this setting: dose: 3.0 mg/kg/injection, schedule: Q01DX009 (ip), vehicle: saline.
The mark [4] stands for this setting: dose: 64.0 mg/kg/injection, schedule: Q01DX005 (ip), vehicle: saline with Tween-80.
The mark [5] stands for this setting: dose: 128.0 mg/kg/injection, schedule: Q01DX005 (ip), vehicle: saline with Tween-80.

Regarding `COC(COC(=O)N1CCN(C=O)CC1)C1=C(N2CC2)C(=O)C(C)=C(N2CC2)C1=O` (stereo not drawn), the T/C reads like this: under setting [1], 103 % of control; under setting [2], 105 % of control; under setting [3], 114 % of control; (dose: 6.0 mg/kg/injection, schedule: Q01DX009 (ip), vehicle: saline) 86 % of control.
As for `COc1ccc2cc1Oc1ccc(cc1)C[C@H]1c3cc(c(OC)cc3CCN1C)Oc1c(OC)c(OC)cc3c1[C@H](C2)N(C)CC3`, the T/C was 100 % of control (dose: 50.0 mg/kg/injection, schedule: Q01DX005 (ip), vehicle: Klucel (hydroxypropylcellulose) (HPC)); 98 % of control and 103 % of control (dose: 100.0 mg/kg/injection, schedule: Q01DX005 (ip), vehicle: Klucel (hydroxypropylcellulose) (HPC)); 119 % of control and 101 % of control (dose: 200.0 mg/kg/injection, schedule: Q01DX005 (ip), vehicle: Klucel (hydroxypropylcellulose) (HPC)); 95 % of control and 113 % of control (dose: 400.0 mg/kg/injection, schedule: Q01DX005 (ip), vehicle: Klucel (hydroxypropylcellulose) (HPC)).
Turning to `CN(N=O)C(=O)N[C@@H](C=O)[C@@H](O)[C@H](O)[C@H](O)CO`, the T/C reads like this: (dose: 0.12 mg/kg/injection, schedule: Q01DX009 (ip), vehicle: citric acid) 101 % of control; (dose: 0.25 mg/kg/injection, schedule: Q01DX009 (ip), vehicle: citric acid) 94 % of control; (dose: 0.5 mg/kg/injection, schedule: Q01DX009 (ip), vehicle: citric acid) 104 % of control; (dose: 1.0 mg/kg/injection, schedule: Q01DX009 (ip), vehicle: citric acid) 102 % of control; (dose: 2.0 mg/kg/injection, schedule: Q01DX009 (ip), vehicle: citric acid) 102 % of control; (dose: 5.0 mg/kg/injection, schedule: Q01DX009 (ip), vehicle: citric acid) 102 % of control. The T/C is, setting by setting: (dose: 10.0 mg/kg/injection, schedule: Q01DX009 (ip), vehicle: citric acid) 108 % of control; (dose: 0.12 micrograms/kg/injection, schedule: Q01DX009 (ip), vehicle: citric acid) 94 % of control.
For `COS(C)(=O)=O`, the T/C was 89 % of control (dose: 16.0 mg/kg/injection, schedule: Q01DX005 (ip), vehicle: saline); 100 % of control (dose: 32.0 mg/kg/injection, schedule: Q01DX005 (ip), vehicle: saline); 95 % of control (dose: 64.0 mg/kg/injection, schedule: Q01DX005 (ip), vehicle: saline); 106 % of control (dose: 128.0 mg/kg/injection, schedule: Q01DX005 (ip), vehicle: saline).
Take `O=NN(CCCl)C(=O)NC1CCCCC1`: the T/C was 116 % of control (dose: 2.0 mg/kg/injection, schedule: Q01DX009 (ip), vehicle: Klucel (hydroxypropylcellulose) (HPC)); 116 % of control (dose: 2.4 mg/kg/injection, schedule: Q01DX001 (ip), vehicle: other); 124 % of control (dose: 4.0 mg/kg/injection, schedule: Q01DX009 (ip), vehicle: other); 100 % of control (dose: 4.7 mg/kg/injection, schedule: Q01DX001 (ip), vehicle: other); 118 % of control (dose: 7.5 mg/kg/injection, schedule: Q01DX009 (ip), vehicle: saline); 161 % of control (dose: 8.0 mg/kg/injection, schedule: Q01DX009 (ip), vehicle: Klucel (hydroxypropylcellulose) (HPC)). The T/C was 102 % of control (dose: 8.0 mg/kg/injection, schedule: Q04DX003 (ip), vehicle: Klucel (hydroxypropylcellulose) (HPC)); 121 % of control (dose: 9.5 mg/kg/injection, schedule: Q01DX001 (ip), vehicle: other); 118 % of control (dose: 13.0 mg/kg/injection, schedule: Q01DX001 (ip), vehicle: other); 150 % of control (dose: 15.0 mg/kg/injection, schedule: Q01DX009 (ip), vehicle: saline); 154 % of control (dose: 16.0 mg/kg/injection, schedule: Q01DX009 (ip), vehicle: Klucel (hydroxypropylcellulose) (HPC)); 118 % of control (dose: 16.0 mg/kg/injection, schedule: Q01DX009 (ip), vehicle: other). In addition, the T/C was 213 % of control (dose: 16.0 mg/kg/injection, schedule: Q01DX009 (ip), vehicle: saline with Tween-80); 102 % of control (dose: 16.0 mg/kg/injection, schedule: Q04DX003 (ip), vehicle: Klucel (hydroxypropylcellulose) (HPC)); 113 % of control (dose: 17.8 mg/kg/injection, schedule: Q01DX001 (ip), vehicle: Klucel (hydroxypropylcellulose) (HPC)); 123 % of control (dose: 18.9 mg/kg/injection, schedule: Q01DX001 (ip), vehicle: other); 290 % of control (dose: 30.0 mg/kg/injection, schedule: Q01DX009 (ip), vehicle: saline); 95 % of control (dose: 32.0 mg/kg/injection, schedule: Q01DX009 (ip), vehicle: Klucel (hydroxypropylcellulose) (HPC)). Moreover, the T/C (dose: 32.0 mg/kg/injection, schedule: Q04DX003 (ip), vehicle: saline) is 220 % of control; the T/C (dose: 36.0 mg/kg/injection, schedule: Q01DX001 (ip), vehicle: Klucel (hydroxypropylcellulose) (HPC)) was 224 % of control; the T/C (dose: 36.0 mg/kg/injection, schedule: Q01DX001 (ip), vehicle: other) was 338 % of control; the T/C (dose: 37.8 mg/kg/injection, schedule: Q01DX001 (ip), vehicle: other) was 173 % of control; the T/C (dose: 40.0 mg/kg/injection, schedule: Q01DX001 (ip), vehicle: Klucel (hydroxypropylcellulose) (HPC)) was 150 % of control; the T/C (dose: 60.0 mg/kg/injection, schedule: Q01DX001 (ip), vehicle: Klucel (hydroxypropylcellulose) (HPC)) was 202 % of control and 212 % of control. Further, the T/C (dose: 90.0 mg/kg/injection, schedule: Q01DX001 (ip), vehicle: Klucel (hydroxypropylcellulose) (HPC)) is 90 % of control.
`CCC(C)N(C)/N=N/c1nc[nH]c1C(N)=O` (stereo not drawn): the T/C runs as follows: (dose: 16.0 mg/kg/injection, schedule: Q01DX005 (ip), vehicle: saline with Tween-80) 102 % of control; (dose: 32.0 mg/kg/injection, schedule: Q01DX005 (ip), vehicle: saline with Tween-80) 106 % of control; under setting [4], 112 % of control; under setting [5], 107 % of control.
`COc1ccc(C(=O)/C(Br)=C/C(=O)O)cc1`: the T/C reads like this: (dose: 10.0 mg/kg/injection, schedule: Q01DX005 (ip), vehicle: saline) 91 % of control and 105 % of control; (dose: 20.0 mg/kg/injection, schedule: Q01DX005 (ip), vehicle: saline) 90 % of control and 93 % of control; (dose: 40.0 mg/kg/injection, schedule: Q01DX005 (ip), vehicle: saline) 97 % of control and 99 % of control.
As for `CO[C@H](C(=O)[C@@H](O)[C@@H](C)O)[C@@H]1Cc2cc3cc(OC4CC(OC5CC(O)C(O)C(C)O5)C(O)C(C)O4)c(C)c(O)c3c(O)c2C(=O)[C@H]1OC1CC(OC2CC(OC3CC(C)(O)C(O)C(C)O3)C(O)C(C)O2)C(O)C(C)O1` (stereo partly drawn), the T/C is 91 % of control and 95 % of control (dose: 0.13 mg/kg/injection, schedule: Q01DX009 (ip), vehicle: saline); 109 % of control and 112 % of control (dose: 0.25 mg/kg/injection, schedule: Q01DX009 (ip), vehicle: saline); 91 % of control and 100 % of control (dose: 0.5 mg/kg/injection, schedule: Q01DX009 (ip), vehicle: saline); 87 % of control and 90 % of control (dose: 1.0 mg/kg/injection, schedule: Q01DX009 (ip), vehicle: saline).
Regarding `CN(Cc1cnc2nc(N)nc(N)c2n1)c1ccc(C(=O)N[C@@H](CCC(=O)O)C(=O)O)cc1`, the T/C is 108 % of control (dose: 0.38 mg/kg/injection, schedule: Q01DX009 (ip), vehicle: saline); 104 % of control (dose: 0.5 mg/kg/injection, schedule: Q01DX009 (ip), vehicle: sodium bicarbonate); 100 % of control and 104 % of control under setting [1]; 100 % of control (dose: 1.0 mg/kg/injection, schedule: Q01DX009 (ip), vehicle: sodium bicarbonate); 95 % of control and 100 % of control under setting [2]; 95 % of control (dose: 2.0 mg/kg/injection, schedule: Q01DX009 (ip), vehicle: sodium bicarbonate). Moreover, the T/C by setting is: under setting [3], 112 % of control; (dose: 4.0 mg/kg/injection, schedule: Q01DX009 (ip), vehicle: sodium bicarbonate) 100 % of control.
Regarding `Nc1nncs1`, the T/C under setting [4] is 100 % of control and 107 % of control; the T/C under setting [5] was 119 % of control and 97 % of control; the T/C (dose: 256.0 mg/kg/injection, schedule: Q01DX005 (ip), vehicle: saline with Tween-80) is 113 % of control; the T/C (dose: 512.0 mg/kg/injection, schedule: Q01DX005 (ip), vehicle: saline with Tween-80) is 113 % of control.
